Test results as given in US20240100170A1, “CYCLIC-AMP RESPONSE ELEMENT BINDING PROTEIN (CBP) AND/OR ADENOVIRAL E1A BINDING PROTEIN OF 300 KDA (P300) DEGRADATION COMPOUNDS AND METHODS OF USE” (CULLGEN (SHANGHAI), INC., priority 2020, published 2024).
Like-named read-outs stand apart in the source and are kept apart here.

Assays:
[1] = test system: LNCaP prostate cancer cell; test: LNCaP cell viability (CellTiter-Glo); format: cell-based; conditions: Homo sapiens, 72 h; LNCaP cell viability, 3 days, CellTiter-Glo; Table 4
Summary of the method: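 CellTiter-Glo luminescence measured three days after dosing with a 12-point 3-fold compound dilution series. LNCaP cells seeded at 5000/well in RPMI 1640 with 10% FBS; data normalized to untreated controls and IC50 fitted by nonlinear least-squares regression.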

P300 = P300 (Homo sapiens, UniProt Q09472); test: percentage of inhibition (degradation) of p300 at 10 nM, Tables 2-4; format: cell-based; parameters: LNCaP or 22RV1 cells that express CBP/P300 proteins were treated with GNE-781 or the bivalent compounds; endogenous in cells; host or cells: LNCaP or 22RV1 (not given); conditions: read-out: Degradation (10 nM)
Experimental: Cultured cells or tissue chunks were washed with cold PBS once and lysed in cold RIPA buffer supplemented with protease inhibitors and phosphatase inhibitors (Beyotime Biotechnology). The solutions were then incubated at 4° C. for 30 minutes with gentle agitation to fully lyse cells. Cell lysates were centrifuged at 13,000 rpm for 10 minutes at 4° C. and pellets were discarded. Total protein concentrations in the lysates were determined by BCA assays (Beyotime Biotechnology). Cell lysates were mixed with Laemmli loading buffer to 1 X and heated at 99° C. for 5 min. Proteins were resolved on SDS-PAGE and visualized by chemiluminescence. Images were taken by a ChemiDoc MP Imaging system (Bio-Rad). Protein bands were quantitated using the accompanied software provided by Bio-Rad.

P300, sequence (Q09472 whole entry): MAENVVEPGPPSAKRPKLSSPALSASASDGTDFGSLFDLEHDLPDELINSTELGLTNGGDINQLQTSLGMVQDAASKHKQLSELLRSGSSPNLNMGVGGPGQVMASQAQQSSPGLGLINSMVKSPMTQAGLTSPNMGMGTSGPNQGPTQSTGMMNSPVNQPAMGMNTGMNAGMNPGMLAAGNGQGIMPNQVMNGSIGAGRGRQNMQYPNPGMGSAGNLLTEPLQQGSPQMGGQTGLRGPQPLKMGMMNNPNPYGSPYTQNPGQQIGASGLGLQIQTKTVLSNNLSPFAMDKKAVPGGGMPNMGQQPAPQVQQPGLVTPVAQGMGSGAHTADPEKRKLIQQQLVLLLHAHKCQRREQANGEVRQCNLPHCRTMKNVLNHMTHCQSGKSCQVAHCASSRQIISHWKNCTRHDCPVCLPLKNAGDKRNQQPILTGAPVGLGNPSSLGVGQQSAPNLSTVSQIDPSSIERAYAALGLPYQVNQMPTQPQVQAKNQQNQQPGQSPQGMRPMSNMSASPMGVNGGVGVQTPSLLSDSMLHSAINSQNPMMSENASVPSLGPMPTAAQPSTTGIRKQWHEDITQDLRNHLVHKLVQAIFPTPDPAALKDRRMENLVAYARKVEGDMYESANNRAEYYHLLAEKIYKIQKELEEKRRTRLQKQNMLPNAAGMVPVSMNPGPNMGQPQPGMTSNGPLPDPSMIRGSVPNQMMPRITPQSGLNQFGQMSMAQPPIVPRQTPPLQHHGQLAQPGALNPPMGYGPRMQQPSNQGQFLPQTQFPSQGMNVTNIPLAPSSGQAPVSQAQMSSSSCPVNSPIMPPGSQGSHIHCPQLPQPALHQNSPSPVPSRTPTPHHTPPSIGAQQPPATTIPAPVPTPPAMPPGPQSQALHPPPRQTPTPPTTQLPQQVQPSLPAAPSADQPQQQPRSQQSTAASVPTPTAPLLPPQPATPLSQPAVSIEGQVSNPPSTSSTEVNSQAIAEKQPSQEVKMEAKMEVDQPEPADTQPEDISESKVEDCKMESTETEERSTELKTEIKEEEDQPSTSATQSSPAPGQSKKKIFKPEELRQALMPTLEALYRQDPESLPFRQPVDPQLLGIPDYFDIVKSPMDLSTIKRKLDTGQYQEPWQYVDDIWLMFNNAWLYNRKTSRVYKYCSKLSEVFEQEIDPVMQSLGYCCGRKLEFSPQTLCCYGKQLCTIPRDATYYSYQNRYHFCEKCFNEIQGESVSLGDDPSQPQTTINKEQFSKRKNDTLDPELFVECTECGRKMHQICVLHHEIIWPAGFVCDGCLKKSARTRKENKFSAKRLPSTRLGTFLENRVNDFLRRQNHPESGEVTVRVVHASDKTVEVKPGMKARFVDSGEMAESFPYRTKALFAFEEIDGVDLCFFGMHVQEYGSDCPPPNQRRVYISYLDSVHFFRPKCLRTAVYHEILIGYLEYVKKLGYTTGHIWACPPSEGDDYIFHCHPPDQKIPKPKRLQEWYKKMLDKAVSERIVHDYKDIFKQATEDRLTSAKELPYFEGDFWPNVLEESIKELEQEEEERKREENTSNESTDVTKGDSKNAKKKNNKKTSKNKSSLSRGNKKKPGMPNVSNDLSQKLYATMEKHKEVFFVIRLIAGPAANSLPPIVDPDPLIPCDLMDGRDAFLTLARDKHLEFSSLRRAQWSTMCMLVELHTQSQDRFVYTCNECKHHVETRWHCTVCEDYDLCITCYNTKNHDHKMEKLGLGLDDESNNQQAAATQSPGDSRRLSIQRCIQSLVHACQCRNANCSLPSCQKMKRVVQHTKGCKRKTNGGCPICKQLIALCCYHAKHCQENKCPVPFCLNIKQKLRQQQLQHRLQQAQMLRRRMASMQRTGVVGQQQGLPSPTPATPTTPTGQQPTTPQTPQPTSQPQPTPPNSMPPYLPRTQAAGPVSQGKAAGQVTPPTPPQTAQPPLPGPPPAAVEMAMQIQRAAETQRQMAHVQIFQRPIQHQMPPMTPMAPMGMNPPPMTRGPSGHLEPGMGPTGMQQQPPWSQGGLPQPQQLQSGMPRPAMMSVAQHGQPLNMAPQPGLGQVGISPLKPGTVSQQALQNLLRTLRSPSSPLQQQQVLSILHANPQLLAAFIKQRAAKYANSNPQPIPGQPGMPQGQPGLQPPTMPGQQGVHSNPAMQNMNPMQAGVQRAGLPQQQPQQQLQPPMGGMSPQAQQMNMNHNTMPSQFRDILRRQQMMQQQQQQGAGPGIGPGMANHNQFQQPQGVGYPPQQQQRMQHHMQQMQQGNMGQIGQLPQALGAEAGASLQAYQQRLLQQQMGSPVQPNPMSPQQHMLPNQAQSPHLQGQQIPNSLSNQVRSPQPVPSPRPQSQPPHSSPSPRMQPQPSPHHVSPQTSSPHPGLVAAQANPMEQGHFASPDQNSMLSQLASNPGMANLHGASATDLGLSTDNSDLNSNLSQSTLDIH

Structure (SMILES)	IC50 [1]	inhibition at 0.01 µM (P300; p300, 10 nM, Table 4)	inhibition at 0.01 µM (P300)
CC(=O)N1CCc2c(c(N3CCCc4cc(-c5cnn(C)c5)c(C(F)F)cc43)nn2C2CCN(Cc3ccc(COc4cccc5c4C(=O)N(C4CCC(=O)NC4=O)C5=O)cc3)CC2)C1 (stereo not shown) [P-195, 4-((4-((4-(5-acetyl-3-(7-(difluoromethyl)-6-(1-methyl-1H-pyrazol-4-yl)-3,4-dihydroquinolin-1(2H)-yl)-4,5,6,7-tetrahydro-1H-pyrazolo[4,3-c]pyridin-1-yl)piperidin-1-yl)methyl)benzyl)oxy)-2-(2,6-dioxopiperidin-3-yl)isoindoline-1,3-dione]	17.6 nM	50 to 80%	–
CC(=O)N1CCc2c(c(N3CCCc4cc(-c5cnn(C)c5)c(C(F)F)cc43)nn2C2CCN(CCN3CCOC(COc4cccc5c4C(=O)N(C4CCC(=O)NC4=O)C5=O)C3)CC2)C1 (stereo not shown) [P-189, 4-((4-(2-(4-(5-acetyl-3-(7-(difluoromethyl)-6-(1-methyl-1H-pyrazol-4-yl)-3,4-dihydroquinolin-1(2H)-yl)-4,5,6,7-tetrahydro-1H-pyrazolo[4,3-c]pyridin-1-yl)piperidin-1-yl)ethyl)morpholin-2-yl)methoxy)-2-(2,6-dioxopiperidin-3-yl)isoindoline-1,3-dione]	38 nM	–	> 80%
CC(=O)N1CCc2c(c(N3CCCc4cc(-c5cnn(C)c5)c(C(F)F)cc43)nn2C2CCN(CCN3CCC(C#Cc4cccc5c4n(C)c(=O)n5C4CCC(=O)NC4=O)CC3)CC2)C1 (stereo not shown) [P-251, 3-(4-((1-(2-(4-(5-acetyl-3-(7-(difluoromethyl)-6-(1-methyl-1H-pyrazol-4-yl)-3,4-dihydroquinolin-1(2H)-yl)-4,5,6,7-tetrahydro-1H-pyrazolo[4,3-c]pyridin-1-yl)piperidin-1-yl)ethyl)piperidin-4-yl)ethynyl)-3-methyl-2-oxo-2,3-dihydro-1H-benzo[d]imidazol-1-yl)piperidine-2,6-dione]	0.1 nM	–	> 80%
CC(=O)N1CCc2c(c(N3CCCc4cc(-c5cnn(C)c5)c(C(F)F)cc43)nn2C2CCN(Cc3cccc(COc4cccc5c4CN(C4CCC(=O)NC4=O)C5=O)c3)CC2)C1 (stereo not shown) [P-202, 3-(4-((3-((4-(5-acetyl-3-(7-(difluoromethyl)-6-(1-methyl-1H-pyrazol-4-yl)-3,4-dihydroquinolin-1(2H)-yl)-4,5,6,7-tetrahydro-1H-pyrazolo[4,3-c]pyridin-1-yl)piperidin-1-yl)methyl)benzyl)oxy)-1-oxoisoindolin-2-yl)piperidine-2,6-dione]	3.1 nM	50 to 80%	–
CC(=O)N1CCc2c(c(N3CCCc4cc(-c5cnn(C)c5)c(C(F)F)cc43)nn2C2CCN(C(=O)CCCN3CCN(CC#Cc4cccc5c4n(C)c(=O)n5C4CCC(=O)NC4=O)CC3)CC2)C1 (stereo not shown) [P-224, 3-(4-(3-(4-(4-(4-(5-acetyl-3-(7-(difluoromethyl)-6-(1-methyl-1H-pyrazol-4-yl)-3,4-dihydroquinolin-1(2H)-yl)-4,5,6,7-tetrahydro-1H-pyrazolo[4,3-c]pyridin-1-yl)piperidin-1-yl)-4-oxobutyl)piperazin-1-yl)prop-1-yn-1-yl)-3-methyl-2-oxo-2,3-dihydro-1H-benzo[d]imidazol-1-yl)piperidine-2,6-dione]	9.9 nM	> 80%	–
CC(=O)N1CCc2c(c(N3CCCc4cc(-c5cnn(C)c5)c(C(F)F)cc43)nn2C2CCN(C(=O)CNc3ccc(C(=O)NC4CCC(=O)NC4=O)c4ncccc34)CC2)C1 (stereo not shown) [P-254, 5-((2-(4-(5-acetyl-3-(7-(difluoromethyl)-6-(1-methyl-1H-pyrazol-4-yl)-3,4-dihydroquinolin-1(2H)-yl)-4,5,6,7-tetrahydro-1H-pyrazolo[4,3-c]pyridin-1-yl)piperidin-1-yl)-2-oxoethyl)amino)-N-(2,6-dioxopiperidin-3-yl)quinoline-8-carboxamide]	5.1 nM	> 80%	–
CC(=O)N1CCc2c(c(N3CCCc4cc(-c5cnn(C)c5)c(C(F)F)cc43)nn2C2CCN(CCN3CCC(C4CN(c5cccc6c5C(=O)N(C5CCC(=O)NC5=O)C6=O)C4)CC3)CC2)C1 (stereo not shown) [P-187, 4-(3-(1-(2-(4-(5-acetyl-3-(7-(difluoromethyl)-6-(1-methyl-1H-pyrazol-4-yl)-3,4-dihydroquinolin-1(2H)-yl)-4,5,6,7-tetrahydro-1H-pyrazolo[4,3-c]pyridin-1-yl)piperidin-1-yl)ethyl)piperidin-4-yl)azetidin-1-yl)-2-(2,6-dioxopiperidin-3-yl)isoindoline-1,3-dione]	2.3 nM	–	> 80%
CC(=O)N1CCc2c(c(N3CCCc4cc(-c5cnn(C)c5)c(C(F)F)cc43)nn2C2CCN(CCN3CCOC(CNc4cccc5c4C(=O)N(C4CCC(=O)NC4=O)C5)C3)CC2)C1 (stereo not shown) [P-198, 3-(7-(((4-(2-(4-(5-acetyl-3-(7-(difluoromethyl)-6-(1-methyl-1H-pyrazol-4-yl)-3,4-dihydroquinolin-1(2H)-yl)-4,5,6,7-tetrahydro-1H-pyrazolo[4,3-c]pyridin-1-yl)piperidin-1-yl)ethyl)morpholin-2-yl)methyl)amino)-1-oxoisoindolin-2-yl)piperidine-2,6-dione]	2.4 nM	–	> 80%
CC(=O)N1CCc2c(c(N3CCCc4cc(-c5cnn(C)c5)c(C(F)F)cc43)nn2C2CCN(C(=O)CCN3CCN(Cc4cccc5c4n(C)c(=O)n5C4CCC(=O)NC4=O)CC3)CC2)C1 (stereo not shown) [P-208, 3-(4-((4-(3-(4-(5-Acetyl-3-(7-(difluoromethyl)-6-(1-methyl-1H-pyrazol-4-yl)-3,4-dihydroquinolin-1(2H)-yl)-4,5,6,7-tetrahydro-1H-pyrazolo[4,3-c]pyridin-1-yl)piperidin-1-yl)-3-oxopropyl)piperazin-1-yl)methyl)-3-methyl-2-oxo-2,3-dihydro-1H-benzo[d]imidazol-1-yl)piperidine-2,6-dione]	19.7 nM	> 80%	–
CC(=O)N1CCc2c(c(N3CCCc4cc(-c5cnn(C)c5)c(C(F)F)cc43)nn2C2CCN(C(=O)CCCNc3ccc(C(=O)NC4CCC(=O)NC4=O)c4ncccc34)CC2)C1 (stereo not shown) [P-253, 5-((4-(4-(5-acetyl-3-(7-(difluoromethyl)-6-(1-methyl-1H-pyrazol-4-yl)-3,4-dihydroquinolin-1(2H)-yl)-4,5,6,7-tetrahydro-1H-pyrazolo[4,3-c]pyridin-1-yl)piperidin-1-yl)-4-oxobutyl)amino)-N-(2,6-dioxopiperidin-3-yl)quinoline-8-carboxamide]	2.6 nM	> 80%	–
CC(=O)N1CCc2c(c(N3CCCc4cc(-c5cnn(C)c5)c(C(F)F)cc43)nn2C2CCN(C(=O)CCCN3CCC(C#Cc4cccc5c4n(C)c(=O)n5C4CCC(=O)NC4=O)CC3)CC2)C1 (stereo not shown) [P-229, 3-(4-((1-(4-(4-(5-acetyl-3-(7-(difluoromethyl)-6-(1-methyl-1H-pyrazol-4-yl)-3,4-dihydroquinolin-1(2H)-yl)-4,5,6,7-tetrahydro-1H-pyrazolo[4,3-c]pyridin-1-yl)piperidin-1-yl)-4-oxobutyl)piperidin-4-yl)ethynyl)-3-methyl-2-oxo-2,3-dihydro-1H-benzo[d]imidazol-1-yl)piperidine-2,6-dione]	0.4 nM	> 80%	–
CC(=O)N1CCc2c(c(N3CCCc4cc(-c5cnn(C)c5)c(C(F)F)cc43)nn2C2CCN(C(=O)CCCN3CCN(CCCc4cccc5c4n(C)c(=O)n5C4CCC(=O)NC4=O)CC3)CC2)C1 (stereo not shown) [P-225, 3-(4-(3-(4-(4-(4-(5-Acetyl-3-(7-(difluoromethyl)-6-(1-methyl-1H-pyrazol-4-yl)-3,4-dihydroquinolin-1(2H)-yl)-4,5,6,7-tetrahydro-1H-pyrazolo[4,3-c]pyridin-1-yl)piperidin-1-yl)-4-oxobutyl)piperazin-1-yl)propyl)-3-methyl-2-oxo-2,3-dihydro-1H-benzo[d]imidazol-1-yl)piperidine-2,6-dione]	43.4 nM	50 to 80%	–
CC(=O)N1CCc2c(c(N3CCCc4cc(-c5cnn(C)c5)c(C(F)F)cc43)nn2C2CCN(C(=O)CN3CCC(CCc4cccc5c4n(C)c(=O)n5C4CCC(=O)NC4=O)CC3)CC2)C1 (stereo not shown) [P-228, 3-(4-(2-(1-(2-(4-(5-acetyl-3-(7-(difluoromethyl)-6-(1-methyl-1H-pyrazol-4-yl)-3,4-dihydroquinolin-1(2H)-yl)-4,5,6,7-tetrahydro-1H-pyrazolo[4,3-c]pyridin-1-yl)piperidin-1-yl)-2-oxoethyl)piperidin-4-yl)ethyl)-3-methyl-2-oxo-2,3-dihydro-1H-benzo[d]imidazol-1-yl)piperidine-2,6-dione]	0.3 nM	> 80%	–
CC(=O)N1CCc2c(c(N3CCCc4cc(-c5cnn(C)c5)c(C(F)F)cc43)nn2C2CCN(C(=O)CCCCNc3ccc(C(=O)NC4CCC(=O)NC4=O)c4ncccc34)CC2)C1 (stereo not shown) [P-241, 5-((5-(4-(5-acetyl-3-(7-(difluoromethyl)-6-(1-methyl-1H-pyrazol-4-yl)-3,4-dihydroquinolin-1(2H)-yl)-4,5,6,7-tetrahydro-1H-pyrazolo[4,3-c]pyridin-1-yl)piperidin-1-yl)-5-oxopentyl)amino)-N-(2,6-dioxopiperidin-3-yl)quinoline-8-carboxamide]	1.4 nM	> 80%	–
